Data from patent US20060167083A1, “Therapeutic methods and compositions involving isoflav-3-ene and isoflavan structures” (priority 2002, published 2006).
pIC50: −log10 of the molar value. Entries after “also recorded” stand apart in the source; their conditions may differ. Where two headings read alike, the source gives them in different places.

Key:
human topo II [1] = molecular target: T1, human topo II (Homo sapiens, UniProt P11388); assay: Topo II-mediated P4 unknotting assay; assay type: biochemical
T1 construct: purchased Topogen (Columbus, Ohio)
T1 sequence (P11388 whole entry): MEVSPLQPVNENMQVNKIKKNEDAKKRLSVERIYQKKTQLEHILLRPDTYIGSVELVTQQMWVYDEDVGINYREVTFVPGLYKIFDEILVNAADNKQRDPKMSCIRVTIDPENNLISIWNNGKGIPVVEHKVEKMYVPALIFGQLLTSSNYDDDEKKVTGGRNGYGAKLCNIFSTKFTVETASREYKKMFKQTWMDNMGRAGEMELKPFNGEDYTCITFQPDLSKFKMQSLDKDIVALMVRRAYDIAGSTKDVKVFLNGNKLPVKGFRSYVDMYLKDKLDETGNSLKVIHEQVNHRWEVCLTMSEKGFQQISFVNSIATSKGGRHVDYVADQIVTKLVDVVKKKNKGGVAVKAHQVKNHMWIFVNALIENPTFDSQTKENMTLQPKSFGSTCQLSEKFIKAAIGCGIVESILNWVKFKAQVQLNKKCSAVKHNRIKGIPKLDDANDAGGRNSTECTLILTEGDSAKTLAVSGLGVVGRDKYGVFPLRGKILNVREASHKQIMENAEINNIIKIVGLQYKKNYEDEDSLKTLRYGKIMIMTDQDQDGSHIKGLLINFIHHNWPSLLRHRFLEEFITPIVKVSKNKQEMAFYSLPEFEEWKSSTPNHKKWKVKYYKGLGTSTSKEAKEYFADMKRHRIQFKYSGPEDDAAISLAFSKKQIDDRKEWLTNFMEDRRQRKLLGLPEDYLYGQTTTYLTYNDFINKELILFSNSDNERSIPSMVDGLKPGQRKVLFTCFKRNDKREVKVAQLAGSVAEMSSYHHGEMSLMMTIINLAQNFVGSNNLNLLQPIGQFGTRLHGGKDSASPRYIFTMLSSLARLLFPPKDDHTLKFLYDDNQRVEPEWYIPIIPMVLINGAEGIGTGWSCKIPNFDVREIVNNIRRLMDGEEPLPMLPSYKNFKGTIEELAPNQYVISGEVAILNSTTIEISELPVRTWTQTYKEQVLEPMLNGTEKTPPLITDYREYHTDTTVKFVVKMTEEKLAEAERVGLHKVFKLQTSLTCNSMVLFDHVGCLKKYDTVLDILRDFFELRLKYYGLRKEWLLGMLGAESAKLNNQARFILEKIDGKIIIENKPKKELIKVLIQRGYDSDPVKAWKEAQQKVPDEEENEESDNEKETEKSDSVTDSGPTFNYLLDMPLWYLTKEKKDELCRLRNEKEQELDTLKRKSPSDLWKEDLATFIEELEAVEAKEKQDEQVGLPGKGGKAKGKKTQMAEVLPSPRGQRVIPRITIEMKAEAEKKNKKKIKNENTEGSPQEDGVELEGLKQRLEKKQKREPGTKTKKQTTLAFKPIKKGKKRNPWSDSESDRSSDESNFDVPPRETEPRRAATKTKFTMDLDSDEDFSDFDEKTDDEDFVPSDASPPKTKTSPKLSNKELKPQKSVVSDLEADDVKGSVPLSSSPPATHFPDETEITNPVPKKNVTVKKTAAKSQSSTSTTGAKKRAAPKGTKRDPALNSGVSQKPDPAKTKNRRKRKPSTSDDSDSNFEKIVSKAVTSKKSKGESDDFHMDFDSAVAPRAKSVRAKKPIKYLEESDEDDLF
Experimental: FIG. 1 represents an unknotting assay for determining the effect of dehydroequol on topo II catalytic activity. Substrate P4 DNA was incubated with two units of purified topo II in the absence (lane 1) or presence of 100, 80, 60, 40, 20, and 10 μg/ml dehydroequol (lanes 3-8). Lane 2, 10 μg/ml VP-16 (positive control). Topo II activity was determined by converting knotted P4 DNA (K) to the unknotted (U) form.
The stepwise removal of DNA knots (unknotting) requires transient double-strand breakage followed by strand passage and relegation. Type II topoisomerases uniquely catalyse this reaction. […] DNA from a mutant bacteriophage (P4 Virl del1O) is used as a reaction substrate that migrates as a smear (due to the variable number of knots). In the presence of topo II, topological DNA knots are removed, and the reaction product (unknotted DNA) migrates as a single band. Complete inhibition was evident at 100 μg/ml dehydroequol. It was determined from densitometric measurements of the unknotted band that 50% inhibition (IC50) was at about 20 μg/ml dehydroequol.
To determine topoisomerase (topo) II catalytic activity, knotted DNA that had been isolated from the tailless capsids of the bacteriophage P4 Virl del1O was used as the substrate. Reaction mixtures contained 50 mM Tris-HCl, pH 8.0, 120 mM KCl, 10 mM MgCl2, 0.5 mM ATP, and 0.5 mM dithiothreitol. The topo II inhibitor was added prior to the addition of 2 units of human topo II. Reactions (20 μl final volume) were initiated by adding 0.6 μg of knotted DNA and carried out at 37° C. for 30 min. […] For the quantitative determination of topo II activity, photographic negatives were densitometrically scanned. Unknotted DNA, migrating as a single band at the top of the gel, was measured in this manner. The concentration of the inhibitor preventing 50% of the substrate (knotted DNA) from being converted into the reaction product (unknotted DNA) was determined from a standard curve. By averaging three to four such experiments, the IC50 values were determined.

human topo II [2] = molecular target: T1, human topo II; assay: Topo II-mediated plasmid linearisation assay; assay type: biochemical
Experimental: FIG. 3 represents an assay for determining the effect of dehydroequol on double-stranded DNA cleavage. pRYG DNA was incubated with ten units of human topo II (lanes 2-6) in the absence (lane 1) or presence of 10, 30, or 100 μg/ml dehydroequol (lanes 2-4), or 30 μg/ml genistein (lane 5), or 10 μg/ml VP-16 (lane 6). Lane 7, linear pUC8 DNA marker. Double-strand DNA breakage was determined by converting relaxed (REL) or supercoiled (SC) pRYG DNA to the linear (LIN) form.
A linearisation assay was employed to determine if dehydroequol is a topo II poison. Double-strand breakage results in the appearance of linear DNA. […] This effect, which was evident at 10 μg/ml, peaked at 30 μg/ml.
Topo II poisons enhance topo II-mediated DNA cleavage and can be identified with the linearisation assay under the reaction conditions provided by the supplier of the enzyme (Topogen, Inc.). Briefly, 20-μl reaction mixtures contained 30 mM Tris-HCl, pH 7.6, 3 mM ATP, 15 mM β-mercaptoethanol, 8 mM MgCl2, 60 mM NaCl, 1 μl of the test agent (or solvent), 0.3 μg of pRYG, and 10 units of human topo II (added last). After a 15-min incubation at 37° C., SDS-proteinase K was added, and following a 15 min incubation at 37° C., samples were extracted with CHCl3-isopropanol and electrophoresis was performed on a 1% agarose gel containing ethidium bromide. Gels were photographed, and photographic negatives were scanned.

[3] = system: human prostatic adenocarcinoma cell line LNCaP; assay: Proliferation of LNCaP cells, MTT assay; assay type: cell-based
Experimental: Proliferation assay: HUVEC were seeded at 3×10^3 cells per gelatin-coated microtitre well and grown in complete medium for 3 days. Dehydroequol (De) was added 3 hours after plating. Proliferation was measured using the MTT assay (Promega, Wis., USA) and is given as the rate of proliferation over the 3 days±SEM of quadruplicate determinations for each group. Proliferation of LNCaP cells was determined using the MTT assay. Cells were seeded at 2.5×10^3 cells per microtitre well. De was added 4 days after plating and assayed after a further 5 days of growth. Cell viability is expressed as a percentage of control untreated cells.

[4] = system: Human umbilical vein endothelial cells (HUVEC); assay: In vitro capillary tube formation assay in collagen gel; assay type: cell-based; conditions: 10 μg/ml, PMA and RMACII present
Experimental: In vitro tube assay: Capillary tube formation in a collagen gel was performed essentially as described by Gamble et al^30,31. Tubes were formed in the presence of the tumour promoter phorbol myristate acetate (PMA) and the anti β1 integrin antibody RMACII. De (10 μg/ml final) was added at the time of plating the cells onto the gel.

Sphingosine Kinase (SK) = assay: Sphingosine kinase activity assay in endothelial cells; assay type: cell-based, human
Experimental: Sphingosine Kinase activity assay: SK activity was measured in vitro by incubating the cytosolic fraction with 10 μM sphingosine-BSA complex and [γ^32P]ATP (1 mM, 0.5 mCi/ml) for 15 minutes at 37° C., as previously described^42. Stimulation was with TNFα (1 ng/ml) (rhTNF-α; R & D Systems, Minneapolis Minn. USA), PMA (100 ng/ml) and IL-1β (100 units/ml) (hrIL-1β; Immunex, Seattle Wa. USA) for 10 minutes. Cells were treated with De or DMSO vehicle as control for 18 hours prior to stimulation.

Oc1ccc(C2=Cc3ccc(O)cc3OC2)cc1 [Dehydroequol, 4′,7-dihydroxyisoflav-3-ene]
concentration at which complete inhibition of topo II unknotting was evident (human topo II [1]): 100 µg/mL
effect on topo II catalytic activity compared with positive control (human topo II [1]; VP-16 10 μg/ml as positive control): comparable to that of VP-16
IC50 (human topo II [1]; densitometric measurements of the unknotted band, read-out: 50% inhibition (IC50) of topo II unknotting (converted)): ~83.2 µM
concentration producing detectable (comparable) topo II-mediated linear plasmid DNA (human topo II [2]): 20 µg/mL
effect on topo II-mediated DNA strand breakage compared with positive controls (human topo II [2]; genistein 30 μg/ml, VP-16 10 μg/ml): much greater than genistein; also recorded: comparable to VP-16
concentration at which production of linear plasmid DNA peaked (human topo II [2]; pRYG DNA, proteinase K/SDS): 30 µg/mL
concentration at which production of linear plasmid DNA was evident (human topo II [2]; pRYG DNA, proteinase K/SDS): 10 µg/mL
IC50 ([3]; LNCaP, read-out: IC50 anti-proliferative): 1.5 µg/mL
pIC50 ([3]; LnCaP, n=3 separate experiments, read-out: In vitro cytotoxicity IC50): 5.36
inhibition of capillary tube formation [4]: inhibits
SK inhibition compared with N,N-dimethylsphingosine (DMS) (Sphingosine Kinase (SK)): equipotent
inhibition of SK activity generated by stimulation with IL-1 (Sphingosine Kinase (SK); dose-dependent, 18 hours pretreatment, IL-1β 100 units/ml 10 minutes): inhibits
inhibition of SK activity generated by stimulation with PMA (Sphingosine Kinase (SK); dose-dependent, 18 hours pretreatment, PMA 100 ng/ml 10 minutes): inhibits
inhibition of SK activity generated by stimulation with TNF (Sphingosine Kinase (SK); dose-dependent, 18 hours pretreatment, TNFα 1 ng/ml 10 minutes): inhibits
effect on basal levels of SK activity (Sphingosine Kinase (SK); unstimulated): no effect
